# In US20050279350A1, “Methods and apparatus for relieving headaches, rhinitis and other common ailments” (priority 1999, published 2005):
# Several values for one entry are separate records, joined by “and”; a condition that tells them apart may be missing. Identical values can stand only once. Like-named read-outs stand apart in the source and are kept apart here. Marks after values point to notes of the source that are not given here.
# System: human subjects with migraine and tension-type headaches, jaw pain
# Assay type: in vivo
# Settings: for Est. Rate / Est. Total Dose / Number of Doses / Single Dose Duration / Total Dose / Total Treatment Time: self-selected effective dose; for 24-hr. Recur Rate / After Effects / Symptom Free, Minutes Post-Treatment / Symptom, Relief, Minutes Post-Treatment: moderate; for range of average dose duration / range of volume of gas: across severities
# Text: The test device was a hand-held, multi-dose, disposable, dispenser that was approximately 3 to 4 inches long and 6/8 to ⅞ inches in diameter constructed as described above. The device consisted of a plastic twist-top flow regulator mounted on top of a pressurized steel cartridge containing liquid carbon dioxide. The tip of the flow regulator has a nosepiece that is the optimal size and configuration to place against and seal off a nostril for administration of the gas. In a number of subjects, the effective nasal and oral carbon dioxide flow rates, and maximum tolerable nasal and oral flow rates, were measured using a laboratory apparatus. This apparatus consisted of a flow regulator connected via tubing to a flow meter and a large tank of carbon dioxide. These flow data were used, together with the number of seconds gas was administered during therapy, to calculate the estimated dose of gas in milliliters.
# Of the total of 15 subjects included in the analysis, 11 used the treatment for 35 headaches and 9 subjects used it for 9 allergy attacks. […] subjects treated both headache and allergy but on different days. The subjects included adults, elderly, and children of both sexes in good general health, having mild, moderate, and severe headaches or having allergies to plant, animal, or airborne allergens. The device was used to treat migraine and tension-type headaches, jaw pain, and allergies (allergic rhinitis, with symptoms that included sinus congestion, sneezing, and itchy throat and eyes). There was no limitation on the duration of symptoms before treatment with the device. Subjects with no prior use of the device and those who have used it (to treat allergy symptoms) previously were included.
# Carbon dioxide (100%) was administered nasally by the subject for a few seconds via a nostril to fill the nasal passages while holding their breath, or taking breaths of room air occasionally if the dose was lengthy. The gas exited the other nostril. Such nasal administration is similar to presently marketed nasal inhalers except that the administered gas was not inhaled. […] Subjects took as many doses as they needed for relief. It is important to note that there were no number of doses, duration of dose, time between doses, or gas flow rate specified for the user. Subjects chose their own regimen for symptom relief. Similarly, in medical practice today, gas therapy is a “titrate to effect” therapy without a specified dosage.
# The International Headache Society (IHS) divides headache intensity into three categories: mild, moderate, and severe. The rating of the intensity level depends on the extent to which the headache interferes with the ability to function. […] The IHS uses headache relief at two hours as its primary outcome measure for present-day headache drug studies. Since therapy of the present invention acts much faster than present-day drugs, the primary outcome measure selected for this analysis was headache relief at 30 minutes. Each of the headache outcome measures used for this analysis is as follows: • Headache relief efficacy at 1, 5, 15, and 30 minutes post-treatment—headache relief efficacy is obtained when a pre-treatment headache severity of mild, moderate, or severe severity is improved to a post-treatment severity of none, mild, or moderate respectively. • Headache free efficacy at 1, 5, 15, and 30 minutes post-treatment—headache free efficacy is obtained when a pre-treatment headache of mild, moderate, or severe severity is improved to a post-treatment severity of none. • Headache recurrence within 24 hours post-treatment—recurrence within 24 hours is defined as no or mild headache severity after treatment that then worsened to moderate or severe headache severity within 24 hours after treatment with no use of rescue medication before the worsening. • Safety parameter—safety is defined as no adverse after-effects of treatment.
# [1] = Headache-All, mild, severe, 1 min post-treatment
# [2] = Headache-All, mild, severe, 5 min post-treatment
# [3] = Headache-All, mild, severe, 15 min post-treatment
# [4] = Headache-All, mild, severe, 30 min post-treatment
# [5] = Headache-All, severe - IHS criteria
# [6] = Headache-All, severe - IHS criteria, 1 min post-treatment
# [7] = Headache-All, severe - IHS criteria, 5 min post-treatment
# [8] = Headache-All, severe - IHS criteria, 15 min post-treatment
# [9] = Headache-All, severe - IHS criteria, 30 min post-treatment
# [10] = Migraine, mild, severe, 1 min post-treatment
# [11] = Migraine, mild, severe, 5 min post-treatment
# [12] = Migraine, mild, severe, 15 min post-treatment
# [13] = Migraine, mild, severe, 30 min post-treatment
# [14] = Migraine, severe - IHS criteria
# [15] = Migraine, severe - IHS criteria, 1 min post-treatment
# [16] = Migraine, severe - IHS criteria, 5 min post-treatment
# [17] = Migraine, severe - IHS criteria, 15 min post-treatment
# [18] = Migraine, severe - IHS criteria, 30 min post-treatment
# [19] = Tension, mild, severe, 1 min post-treatment
# [20] = Tension, mild, severe, 5 min post-treatment
# [21] = Tension, mild, severe, 15 min post-treatment
# [22] = Tension, mild, severe, 30 min post-treatment
# [23] = Tension, severe - IHS criteria, 1 min post-treatment
# [24] = Tension, severe - IHS criteria, 5 min post-treatment
# [25] = Tension, severe - IHS criteria, 15 min post-treatment
# [26] = Tension, severe - IHS criteria, 30 min post-treatment
smiles,measurement,setting,value
O=C=O [carbon dioxide],headache recurrence 24 hours post-treatment,35 headaches,no instances of headache recurrence
same,Est. Rate,Headache-All,4 mL/s
same,Est. Total Dose,Headache-All,124 mL
same,Number of Doses,Headache-All,2 #
same,Single Dose Duration,Headache-All,15 s
same,Total Dose,Headache-All,32 s
same,Total Treatment Time,Headache-All,7 min
same,24-hr. Recur Rate,"Headache-All, mild, severe",0%
same,After Effects,"Headache-All, mild, severe",0%
same,"Symptom Free, Minutes Post-Treatment",[1],31%
same,"Symptom, Relief, Minutes Post-Treatment",[1],31%
same,"Symptom Free, Minutes Post-Treatment",[2],60%
same,"Symptom, Relief, Minutes Post-Treatment",[2],63%
same,"Symptom Free, Minutes Post-Treatment",[3],74%
same,"Symptom, Relief, Minutes Post-Treatment",[3],86%
same,"Symptom Free, Minutes Post-Treatment",[4],80%
same,"Symptom, Relief, Minutes Post-Treatment",[4],94%
same,24-hr. Recur Rate,[5],0%
same,After Effects,[5],0%
same,"Symptom Free, Minutes Post-Treatment",[6],16%
same,"Symptom, Relief, Minutes Post-Treatment",[6],16%
same,"Symptom Free, Minutes Post-Treatment",[7],52%
same,"Symptom, Relief, Minutes Post-Treatment",[7],52%
same,"Symptom Free, Minutes Post-Treatment",[8],72%
same,"Symptom, Relief, Minutes Post-Treatment",[8],72%
same,"Symptom Free, Minutes Post-Treatment",[9],80%
same,"Symptom, Relief, Minutes Post-Treatment",[9],84%
same,Est. Rate,Migraine-All,3 mL/s
same,Est. Total Dose,Migraine-All,158 mL
same,Number of Doses,Migraine-All,2 #
same,Single Dose Duration,Migraine-All,29 s
same,Total Dose,Migraine-All,57 s
same,Total Treatment Time,Migraine-All,15 min
same,Est. Rate,Migraine-Mild,3 mL/s
same,Est. Total Dose,Migraine-Mild,82 mL
same,Number of Doses,Migraine-Mild,1 #
same,Single Dose Duration,Migraine-Mild,23 s
same,Total Dose,Migraine-Mild,30 s
same,Total Treatment Time,Migraine-Mild,1 min
same,Est. Rate,Migraine-Severe,3 mL/s
same,Est. Total Dose,Migraine-Severe,233 mL
same,Number of Doses,Migraine-Severe,2 #
same,Single Dose Duration,Migraine-Severe,35 s
same,Total Dose,Migraine-Severe,83 s
same,Total Treatment Time,Migraine-Severe,28 min
same,24-hr. Recur Rate,"Migraine, mild, severe",0%
same,After Effects,"Migraine, mild, severe",0%
same,"Symptom Free, Minutes Post-Treatment",[10],60%
same,"Symptom, Relief, Minutes Post-Treatment",[10],60%
same,"Symptom Free, Minutes Post-Treatment",[11],60%
same,"Symptom, Relief, Minutes Post-Treatment",[11],60%
same,"Symptom Free, Minutes Post-Treatment",[12],60%
same,"Symptom, Relief, Minutes Post-Treatment",[12],60%
same,"Symptom Free, Minutes Post-Treatment",[13],90%
same,"Symptom, Relief, Minutes Post-Treatment",[13],90%
same,24-hr. Recur Rate,[14],0%
same,After Effects,[14],0%
same,"Symptom Free, Minutes Post-Treatment",[15],25%
same,"Symptom, Relief, Minutes Post-Treatment",[15],25%
same,"Symptom Free, Minutes Post-Treatment",[16],25%
same,"Symptom, Relief, Minutes Post-Treatment",[16],25%
same,"Symptom Free, Minutes Post-Treatment",[17],25%
same,"Symptom, Relief, Minutes Post-Treatment",[17],25%
same,"Symptom Free, Minutes Post-Treatment",[18],75%
same,"Symptom, Relief, Minutes Post-Treatment",[18],100%
same,Est. Rate,Tension-All,4 mL/s
same,Est. Total Dose,Tension-All,122 mL
same,Number of Doses,Tension-All,3 #
same,Single Dose Duration,Tension-All,8 s
same,Total Dose,Tension-All,24 s
same,Total Treatment Time,Tension-All,6 min
same,Est. Rate,Tension-Mild,3 mL/s
same,Est. Total Dose,Tension-Mild,28 mL
same,Number of Doses,Tension-Mild,2 #
same,Single Dose Duration,Tension-Mild,3 s
same,Total Dose,Tension-Mild,6 s
same,Total Treatment Time,Tension-Mild,2 min
same,Est. Rate,Tension-Moderate,4 mL/s
same,Est. Total Dose,Tension-Moderate,50 mL
same,Number of Doses,Tension-Moderate,2 #
same,Single Dose Duration,Tension-Moderate,6 s
same,Total Dose,Tension-Moderate,11 s
same,Total Treatment Time,Tension-Moderate,4 min
same,Est. Rate,Tension-Severe,5 mL/s
same,Est. Total Dose,Tension-Severe,288 mL
same,Number of Doses,Tension-Severe,4 #
same,Single Dose Duration,Tension-Severe,15 s
same,Total Dose,Tension-Severe,56 s
same,Total Treatment Time,Tension-Severe,11 min
same,24-hr. Recur Rate,"Tension, mild, severe",0%
same,After Effects,"Tension, mild, severe",0%
same,"Symptom Free, Minutes Post-Treatment",[19],20%
same,"Symptom, Relief, Minutes Post-Treatment",[19],20%
same,"Symptom Free, Minutes Post-Treatment",[20],64%
same,"Symptom, Relief, Minutes Post-Treatment",[20],64%
same,"Symptom Free, Minutes Post-Treatment",[21],80%
same,"Symptom, Relief, Minutes Post-Treatment",[21],96%
same,"Symptom Free, Minutes Post-Treatment",[22],80%
same,"Symptom, Relief, Minutes Post-Treatment",[22],96%
same,24-hr. Recur Rate,"Tension, severe - IHS criteria",0%
same,After Effects,"Tension, severe - IHS criteria",0%
same,"Symptom Free, Minutes Post-Treatment",[23],14%
same,"Symptom, Relief, Minutes Post-Treatment",[23],14%
same,"Symptom Free, Minutes Post-Treatment",[24],55%
same,"Symptom, Relief, Minutes Post-Treatment",[24],55%
same,"Symptom Free, Minutes Post-Treatment",[25],77%
same,"Symptom, Relief, Minutes Post-Treatment",[25],77%
same,"Symptom Free, Minutes Post-Treatment",[26],80% and 77%
same,"Symptom, Relief, Minutes Post-Treatment",[26],77%
same,headache outcome in an individual subject,"all subsequent mild and severe migraines, two to three doses for 25 sec each=120 ml",completely eliminate
same,dose dependence of the treatment,analysis of the headache and allergy therapy data (Table IV),dose dependent
same,headache outcome in an individual subject,"at onset of a migraine, doses twice for 20 to 25 seconds",completely aborts the migraine and it does not recur
same,adverse after effects of treatment,headache subjects,no subjects reported any adverse after effects
same,onset of symptom relief,"headache, while administering the first dose",immediate onset of symptom relief within seconds
same,efficacy,"migraine and tension-type headache, occurring in seconds to minutes",80-94%
same,range of average dose duration,migraine headaches,30 to 83 s
same,range of volume of gas,migraine headaches,82 to 233 mL
same,headache outcome in an individual subject,"mild migraine, first use of device, one dose for 30 sec=60 ml",unable to improve
same,headache outcome in an individual subject,"moderate tension headache, one dose of 1 sec=2 ml",no success
same,headache outcome in an individual subject,"severe jaw/tooth ache, three doses of 45 sec each=675 ml",completely eliminate
same,headache outcome in an individual subject,"severe tension headache, three doses of 15 sec each=225 ml",completely eliminate
same,headache outcome in an individual subject,"severe tension headaches, three occasions, six doses of 8 sec each=240 ml",only moderate success
same,range of average dose duration,tension-type headaches,6 to 56 s
same,range of volume of gas,tension-type headaches,28 to 288 mL
